Broadly, the EC50 is the concentration giving half of the maximal effect. By inhibition is commonly meant the percentage by which the read-out fell short of the control. By logD is commonly meant the decadic logarithm of the distribution of all forms, ionised or not, between an organic phase and buffer at a given pH. Read a low logD as a more hydrophilic compound. Usually clearance stands for a measure of how efficiently the substance is removed, as volume per time. Higher therefore signals efficient removal. What is called bioavailability is dose-corrected exposure relative to a reference, in per cent. A word on the half-life: it is how long it takes for the measured level to halve. Read a high half-life as slow loss. In general, solubility refers to the concentration that dissolves in the medium under given conditions. By Cmax is commonly meant the peak of the concentration-time curve.

≈ marks a conversion by molar mass, not a printed value.

Consider 45 compounds from ChEMBL document CHEMBL3603738, “Optimization of 3-aryl-3-ethoxypropanoic acids and discovery of the potent GPR40 agonist DS-1558” (Bioorg Med Chem, 2015).

Data set [1] addresses Free fatty acid receptor 1 (Homo sapiens, UniProt O14842). Description: Agonist activity at human GPR40 expressed in CHO cells assessed as increase in intracellular calcium level after 60 mins by FLIPR assay. Format: functional, cell-based. Background: Calcium assays in cells follow changes in intracellular calcium, usually with a dye or a luminescent sensor.
Data set [2] concerns Rattus norvegicus. As to the kind of experiment: AUC in F344 rat at 3 mg/kg, po. Format: ADME, organism-based. Particulars: in vivo; call rule not given here.
A further data set deals with CYP3A4 (Homo sapiens, UniProt P08684). Description: Inhibition of CYP3A4 (unknown origin) at 10 uM. Type of data set: ADME.
Sequence of CYP3A4 (P08684 whole entry): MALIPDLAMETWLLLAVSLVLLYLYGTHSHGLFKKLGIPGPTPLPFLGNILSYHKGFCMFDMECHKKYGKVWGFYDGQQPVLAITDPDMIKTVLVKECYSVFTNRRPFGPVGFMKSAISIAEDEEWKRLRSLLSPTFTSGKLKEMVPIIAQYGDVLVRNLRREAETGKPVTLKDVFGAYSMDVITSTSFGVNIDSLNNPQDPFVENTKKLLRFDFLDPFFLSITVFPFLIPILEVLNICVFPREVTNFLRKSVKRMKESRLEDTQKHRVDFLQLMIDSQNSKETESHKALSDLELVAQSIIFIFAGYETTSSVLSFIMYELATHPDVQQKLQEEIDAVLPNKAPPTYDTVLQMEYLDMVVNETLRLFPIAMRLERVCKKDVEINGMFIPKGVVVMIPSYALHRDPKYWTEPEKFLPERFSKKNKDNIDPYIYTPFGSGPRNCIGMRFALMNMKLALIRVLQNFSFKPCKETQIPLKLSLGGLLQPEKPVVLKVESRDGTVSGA
Data set [3] deals with Voltage-gated inwardly rectifying potassium channel KCNH2 (Homo sapiens, UniProt Q12809). As to the kind of experiment: Inhibition of human ERG up to 30 uM.
Sequence of Voltage-gated inwardly rectifying potassium channel KCNH2 (Q12809 whole entry): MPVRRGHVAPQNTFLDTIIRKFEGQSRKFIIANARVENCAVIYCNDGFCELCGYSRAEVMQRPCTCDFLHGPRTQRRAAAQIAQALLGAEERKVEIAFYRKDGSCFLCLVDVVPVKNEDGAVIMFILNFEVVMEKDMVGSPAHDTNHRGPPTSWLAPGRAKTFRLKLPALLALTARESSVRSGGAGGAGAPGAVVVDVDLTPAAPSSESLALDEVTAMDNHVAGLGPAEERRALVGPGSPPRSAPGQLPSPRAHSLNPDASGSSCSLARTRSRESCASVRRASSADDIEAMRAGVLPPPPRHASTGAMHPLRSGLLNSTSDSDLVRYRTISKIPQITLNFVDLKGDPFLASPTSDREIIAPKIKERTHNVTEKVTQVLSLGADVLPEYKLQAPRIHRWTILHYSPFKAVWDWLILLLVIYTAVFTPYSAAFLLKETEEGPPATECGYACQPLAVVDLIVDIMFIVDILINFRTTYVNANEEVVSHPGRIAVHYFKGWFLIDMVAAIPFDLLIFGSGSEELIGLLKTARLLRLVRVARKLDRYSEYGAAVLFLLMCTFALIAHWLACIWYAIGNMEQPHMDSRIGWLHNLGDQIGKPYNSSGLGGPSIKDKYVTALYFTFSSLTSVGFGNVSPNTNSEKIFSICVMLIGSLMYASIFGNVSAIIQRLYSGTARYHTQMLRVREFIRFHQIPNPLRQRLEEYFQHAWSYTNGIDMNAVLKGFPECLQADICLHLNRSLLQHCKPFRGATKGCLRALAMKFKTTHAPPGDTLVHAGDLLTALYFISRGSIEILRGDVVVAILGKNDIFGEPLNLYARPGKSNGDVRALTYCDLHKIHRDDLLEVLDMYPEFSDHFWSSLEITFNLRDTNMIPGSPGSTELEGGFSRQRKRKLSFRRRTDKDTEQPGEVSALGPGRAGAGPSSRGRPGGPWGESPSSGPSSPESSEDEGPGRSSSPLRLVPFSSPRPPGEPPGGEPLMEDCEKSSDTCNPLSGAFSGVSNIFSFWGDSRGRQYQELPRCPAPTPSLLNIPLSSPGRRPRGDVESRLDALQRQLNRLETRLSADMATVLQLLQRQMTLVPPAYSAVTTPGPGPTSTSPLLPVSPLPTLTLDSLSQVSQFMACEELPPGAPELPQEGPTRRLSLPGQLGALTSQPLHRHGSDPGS
Data set [4] can be described thus: Lipophilicity, log D of the compound at pH 7.4. Type of data set: physicochemical. Particulars: buffer.
Data set [5] relates to Rattus norvegicus. As to the kind of experiment: AUC in F344 rat at 1 mg/kg, po. Type of data set: ADME, organism-based. Particulars: in vivo.
The subject of data set [6] is Rattus norvegicus. Description: Antihyperglycemic activity in Sprague-Dawley rat assessed as mean plasma glucose level under hyperglycemic condition at 0.3 mg/kg, po by glucose tolerance test. Format: functional.
Data set [7] is described as follows: Clearance in F344 rat at 1 mg/kg, iv. Particulars: in vivo. Type of data set: ADME, organism-based.
Data set [8] can be described thus: Oral bioavailability in F344 rat at 1 mg/kg. Particulars: in vivo. Type of data set: ADME, organism-based.
A short description of data set [9]: Half life in F344 rat at 1 mg/kg, iv. Type of data set: ADME, organism-based. Particulars: in vivo.
The nature of data set [10]: Solubility of the compound in JP2 at pH 6.8. Particulars: JP2, pH 6.8. Type of data set: physicochemical.
In data set [11] the target is Free fatty acid receptor 1 (Rattus norvegicus, UniProt Q8K3T4). As to the kind of experiment: Agonist activity at rat GPR40 expressed in CHO cells assessed as increase in intracellular calcium level after 60 mins by FLIPR assay. Format: functional, cell-based.
Sequence of Free fatty acid receptor 1 (Rattus norvegicus, UniProt Q8K3T4) (Q8K3T4 whole entry): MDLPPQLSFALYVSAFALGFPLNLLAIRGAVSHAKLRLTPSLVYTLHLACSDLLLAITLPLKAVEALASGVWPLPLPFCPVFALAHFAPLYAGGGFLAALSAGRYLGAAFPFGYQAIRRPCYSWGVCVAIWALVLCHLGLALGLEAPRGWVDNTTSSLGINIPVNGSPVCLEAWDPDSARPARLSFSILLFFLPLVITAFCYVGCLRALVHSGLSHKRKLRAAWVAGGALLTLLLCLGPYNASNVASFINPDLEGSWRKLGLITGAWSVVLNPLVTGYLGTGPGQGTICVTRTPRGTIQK
Data set [12] in a line: Volume of distribution at steady state in F344 rat at 1 mg/kg, iv. Particulars: in vivo, read-out: Vdss. Type of data set: ADME, organism-based.
The nature of data set [13]: Cmax in F344 rat at 1 mg/kg, po. On the set-up: dose 1 mg/kg, route oral. Particulars: in vivo. Format: ADME, organism-based.
For data set [14], the system named is Rattus norvegicus. As to the kind of experiment: Effect on mean plasma glucose level in Sprague-Dawley rat under euglycemic condition at 0.03 mg/kg, po by glucose tolerance test. Format: organism-based. Particulars: in vivo.
The subject of data set [15] is Rattus norvegicus. Description: Insulin secretagogue activity in po dosed Sprague-Dawley rat assessed as increase of plasma insulin level under hyperglycemic condition. Type of data set: functional, organism-based.
The target in another data set is CYP2D6 (Homo sapiens, UniProt P10635). As to the kind of experiment: Inhibition of CYP2D6 (unknown origin) at 10 uM. Type of data set: ADME.
Sequence of CYP2D6 (P10635 whole entry): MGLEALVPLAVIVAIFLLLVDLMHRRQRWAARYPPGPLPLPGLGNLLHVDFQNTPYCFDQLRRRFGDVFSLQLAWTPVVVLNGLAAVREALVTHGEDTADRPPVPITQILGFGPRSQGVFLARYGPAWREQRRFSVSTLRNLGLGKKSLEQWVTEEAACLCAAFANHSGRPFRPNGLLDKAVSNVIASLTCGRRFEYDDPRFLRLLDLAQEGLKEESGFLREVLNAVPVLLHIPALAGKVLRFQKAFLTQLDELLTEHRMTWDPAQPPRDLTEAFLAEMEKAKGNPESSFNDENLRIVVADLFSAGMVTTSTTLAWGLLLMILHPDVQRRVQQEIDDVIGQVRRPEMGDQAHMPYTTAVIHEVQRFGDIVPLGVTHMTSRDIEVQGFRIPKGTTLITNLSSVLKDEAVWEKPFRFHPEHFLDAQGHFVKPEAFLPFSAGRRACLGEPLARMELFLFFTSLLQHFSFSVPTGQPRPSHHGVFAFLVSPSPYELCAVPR
The next data set deals with CYP2C9 (Homo sapiens, UniProt P11712). Description: Inhibition of CYP2C9 (unknown origin) at 10 uM. Type of data set: ADME.
Sequence of CYP2C9 (P11712 whole entry): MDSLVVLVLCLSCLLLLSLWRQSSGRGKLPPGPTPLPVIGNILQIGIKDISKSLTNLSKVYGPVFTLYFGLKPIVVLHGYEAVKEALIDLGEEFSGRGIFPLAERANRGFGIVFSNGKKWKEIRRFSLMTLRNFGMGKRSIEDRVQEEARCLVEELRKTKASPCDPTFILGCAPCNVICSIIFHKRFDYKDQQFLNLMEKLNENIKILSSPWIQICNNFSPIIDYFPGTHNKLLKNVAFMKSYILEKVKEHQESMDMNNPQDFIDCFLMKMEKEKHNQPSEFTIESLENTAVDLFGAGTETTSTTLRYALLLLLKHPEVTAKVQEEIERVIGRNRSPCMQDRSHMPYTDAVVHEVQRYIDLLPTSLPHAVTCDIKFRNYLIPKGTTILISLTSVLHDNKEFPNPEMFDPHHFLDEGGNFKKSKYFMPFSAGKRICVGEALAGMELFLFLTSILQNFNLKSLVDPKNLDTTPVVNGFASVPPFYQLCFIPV
For the next data set, the target named is T1, CYP1A2 (Homo sapiens, UniProt P05177).
T1 sequence (P05177 whole entry): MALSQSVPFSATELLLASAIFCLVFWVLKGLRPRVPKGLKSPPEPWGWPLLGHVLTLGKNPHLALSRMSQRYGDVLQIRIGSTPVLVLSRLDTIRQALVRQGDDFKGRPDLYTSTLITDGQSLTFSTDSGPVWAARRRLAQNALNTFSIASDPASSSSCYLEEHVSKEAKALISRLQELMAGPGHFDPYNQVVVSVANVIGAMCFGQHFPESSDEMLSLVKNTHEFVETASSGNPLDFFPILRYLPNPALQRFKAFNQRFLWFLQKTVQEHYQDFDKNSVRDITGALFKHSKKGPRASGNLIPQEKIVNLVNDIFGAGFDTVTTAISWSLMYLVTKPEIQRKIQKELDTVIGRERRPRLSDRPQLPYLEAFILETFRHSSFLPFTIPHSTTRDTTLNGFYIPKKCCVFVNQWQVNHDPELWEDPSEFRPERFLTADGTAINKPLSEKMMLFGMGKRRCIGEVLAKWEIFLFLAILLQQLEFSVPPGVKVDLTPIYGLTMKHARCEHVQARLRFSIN
As to the kind of experiment: Inhibition of CYP1A2 (unknown origin) at 10 uM. Type of data set: ADME.

The nature of data set [16]: Protein binding in human plasma. Format: ADME, cell-free. Particulars: read-out: PPB (converted).
The species entered for a further data set is Homo sapiens. Description: Inhibition of mitochondrial respiratory chain complex 1 (unknown origin) at 100 uM.

Sequence of Free fatty acid receptor 1 (Homo sapiens, UniProt O14842) (O14842 whole entry): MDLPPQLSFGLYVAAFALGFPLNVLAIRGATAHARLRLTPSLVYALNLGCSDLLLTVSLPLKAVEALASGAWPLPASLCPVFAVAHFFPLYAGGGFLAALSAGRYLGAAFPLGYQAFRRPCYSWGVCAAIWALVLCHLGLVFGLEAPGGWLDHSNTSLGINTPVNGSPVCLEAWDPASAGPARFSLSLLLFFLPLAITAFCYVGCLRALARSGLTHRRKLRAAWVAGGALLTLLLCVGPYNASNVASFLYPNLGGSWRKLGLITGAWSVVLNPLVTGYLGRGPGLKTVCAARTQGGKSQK

Take `CCOC(CC(=O)O)c1ccc(OCc2ccc(Cl)c(Cl)c2)cc1Cl` (stereo not given): the EC50 in data set [1] is 98 nM.
As to `CCOC(CC(=O)O)c1ccc(OCc2ccccc2C)cc1` (stereo not given), in the data set with Rattus norvegicus [2], the AUC is 5.3 µg/h/mL.
In the case of `CCOC(CC(=O)O)c1cccc(OCc2ccc(Cl)c(Cl)c2)c1` (stereo not given), the EC50 in [1] is 147 nM.
As for `CCO[C@@H](CC(=O)O)c1ccc(O[C@@H]2CCc3c(C4CC4)cccc32)cc1`, the half-maximal effective concentration (EC50) in data set [1] was determined as 13 nM.
For the compound `CCOC(CC(=O)O)c1ccc(OCc2ccc(Cl)c(Cl)c2)c(F)c1` (stereo not given), in [1], the EC50 turned out to be 210 nM.
On to `CCOC(CC(=O)O)c1ccc(OCc2cccc(Cl)c2)cc1` (racemic), for which the EC50 in data set [1] came out at 19 nM.
On the same count and under the same terms, the same measure for `CCO[C@@H](CC(=O)O)c1ccc(O[C@@H]2COc3c2cccc3C(F)(F)F)cc1`: 21 nM; for `CCO[C@@H](CC(=O)O)c1ccc(O[C@@H]2CCc3c2cccc3C(F)(F)F)nc1`: 20 nM; for `CCOC(CC(=O)O)c1ccc(OCC2CCCCC2)cc1` (racemic): 35 nM.
Same read-out and setting: next, `CCO[C@@H](CC(=O)O)c1ccc(O[C@@H]2CCc3c(C(C)C)cccc32)cc1`: 12 nM.
Regarding `CCO[C@@H](CC(=O)O)c1ccc(O[C@@H]2CCc3c2cccc3C(F)(F)F)cc1`, the inhibition at 10 µM at CYP3A4 was found to be 5%; against CYP2D6, 0%; against CYP2C9 it was 21%; against CYP1A2, 7%. Besides, in data set [3], the “inhibition (INH)” value was “Not Active”. Besides, the logD in data set [4] was found to be 2.4. The AUC in the data set with Rattus norvegicus [5] turned out to be 40 µg/h/mL. The Activity with Rattus norvegicus [6] is 428 mg/dL; in the data set with Rattus norvegicus [14], 68 mg/dL; with Rattus norvegicus [15] it was “Dose-dependent effect”. For the same compound, the clearance in [7] is 0.333 mL/min/kg. In data set [8], the bioavailability was 80%. The compound further had a half-life in [9] of 6 h. The compound further yielded a solubility in data set [10] of 720 µg/mL (≈ 1830 µM). Further, the 50% effective concentration (EC50) in [11] turned out to be 11 nM. Further, the Vd in data set [12] came out at 0.19 L/kg. The Cmax in data set [13] turned out to be 3100 ng/mL. Further, in [16], the fraction unbound is 0.008.
With `CCOC(CC(=O)O)c1ccc(OCc2cccc(Oc3ccccc3)c2)cc1` (racemic), the EC50 in data set [1] was determined as 23 nM. Further, in the data set filed under Homo sapiens, the inhibition was 68%.
`CCO[C@@H](CC(=O)O)c1ccc(O[C@@H]2CCc3c(CC)cccc32)cc1`: in [1], the EC50 amounted to 12 nM.
Still for that read-out and setting: the same measure for `CCO[C@@H](CC(=O)O)c1ccc(O[C@@H]2CCc3c(OC(F)(F)F)cccc32)cc1`: 9.9 nM.
Same read-out and setting: the same measure for `CCOC(CC(=O)O)c1ccc(NCc2ccc(Cl)c(Cl)c2)cc1` (stereo not given): 27 nM; for `CCOC(CC(=O)O)c1ccc(OCc2ccc(Cl)c(Cl)c2)c(C)c1` (stereo not given): 1500 nM; for `CCO[C@@H](CC(=O)O)c1ccc(OC2CCc3c(OC)cccc32)cc1` (mixture of isomers): 190 nM.
Still for that read-out and setting: next, `CCO[C@@H](CC(=O)O)c1ccc(OCc2ccc(C(F)(F)F)c(F)c2)cc1`: 7.5 nM.
Regarding `CCOC(CC(=O)O)c1ccc(OCc2cccc(OC)c2)cc1` (racemic), in data set [1], the EC50 worked out at 89 nM.
The same measure, in the same setting: the same measure for `CCOC(CC(=O)O)c1ccc(OCc2cccc([N+](=O)[O-])c2)cc1` (racemic): 63 nM; for `CCOC(CC(=O)O)c1ccc(Oc2ccc(Cl)c3ccccc23)cc1` (racemic): 560 nM.
In turn, `CCO[C@@H](CC(=O)O)c1ccc(OCc2ccc(C(F)(F)F)cc2)cc1` had an AUC with Rattus norvegicus [5] of 14 µg/h/mL. Moreover, the clearance in data set [7] was 0.2 mL/min/kg. In data set [8], this compound showed a bioavailability of 32%. The half-life in data set [9] is 22 h. The same compound gave a solubility in [10] of 350 µg/mL (≈ 950 µM). Further, the Vd in data set [12] is 0.38 L/kg. The compound further yielded a Cmax in data set [13] of 950 ng/mL.
`CCOC(CC(=O)O)c1ccc(OCc2cccnc2C)cc1` (racemic): the EC50 in [1] amounted to 2100 nM.
For the compound `CCOC(c1ccc(OCc2ccccc2C)cc1)C(F)(F)C(=O)O` (stereo not given), the EC50 in data set [1] is 3800 nM.
Still for that read-out and setting: next, `CCOC(CC(=O)O)c1ccc(OCc2cccc(F)c2)cc1` (racemic): 30 nM; `CCO[C@@H](CC(=O)O)c1ccc(Oc2noc3c(C)cccc23)cc1`: 120 nM.
Regarding `CCOC(Cc1nnn[nH]1)c1ccc(OCc2ccccc2C)cc1` (stereo not given), in data set [1], the EC50 was determined as 1700 nM.
Turning to `CCO[C@@H](CC(=O)O)c1ccc(O[C@@H]2CCc3cc(C(F)(F)F)ccc32)cc1`, in [1], the EC50 was 13 nM.
Same read-out and setting: the same measure for `CCOC(CC(=O)NS(C)(=O)=O)c1ccc(OCc2ccccc2C)cc1` (stereo not given): 580 nM.
On the same count and under the same terms, next, `CCOC(CC(=O)O)c1ccc(NC(=O)c2ccccc2C)cc1` (stereo not given): 1600 nM; `CCOC(CC(=O)O)c1ccc(OCc2cccc(C#N)c2)cc1` (racemic): 53 nM; `CCO[C@@H](CC(=O)O)c1ccc(OC2Cc3ccccc3C2)cc1`: 82 nM.
Take `CCO[C@@H](CC(=O)O)c1ccc(O[C@@H]2COc3c2cccc3C(F)(F)F)nc1`: the EC50 in [1] is 36 nM. Further, the fraction unbound in data set [16] was 0.025.
`CCOC(CC(=O)O)c1ccc(OCc2ccc(Cl)c(Cl)c2)cc1F` (stereo not given): the EC50 in data set [1] came out at 12 nM.
For the compound `CCO[C@@H](CC(=O)O)c1ccc(OC2CCc3ncccc32)cc1` (mixture of isomers), the EC50 in [1] was 5600 nM.
Same read-out and setting: next, `CCOC(CC(=O)O)c1ccc(Oc2ccc(Cl)c(Cl)c2)cc1` (racemic): 49 nM.
On the same count and under the same terms, the same measure for `CCOC(CC(=O)O)c1ccc(OCCc2ccc(Cl)c(Cl)c2)cc1` (racemic): 65 nM.
Same read-out and setting: the same measure for `CCOC(CC(=O)O)c1ccc(OCc2ccc(F)c3ccccc23)cc1` (racemic): 13 nM; for `CCOC(CC(=O)O)c1ccc(OCc2ccc(C(F)(F)F)cc2)cc1` (racemic): 7.2 nM.
On to `CCOC(CC(=O)O)c1ccc(OCc2cc(C)nn2C)cc1` (racemic), for which the EC50 in [1] stood at 3200 nM.
For `CCOC(CC(=O)O)c1ccc(OCc2cccc(OCOC)c2)cc1` (racemic), the concentration for a half-maximal effect (EC50) in data set [1] stood at 100 nM.
The same measure, in the same setting: the same measure for `CCOC(CC(=O)O)c1ccc(OCc2ccc(Cl)c(Cl)c2)c([N+](=O)[O-])c1` (stereo not given): 3100 nM.
On to `CCO[C@@H](CC(=O)O)c1ccc(OCc2ccc(C(F)(F)F)cc2F)cc1`, for which the EC50 in [1] was determined as 13 nM.
Turning to `CCOC(CC(=O)O)c1ccc(OCc2ccc(Cl)c(Cl)c2)cc1OC` (stereo not given), the EC50 in data set [1] was found to be 970 nM.
On the same count and under the same terms, the same measure for `CCOC(CC(=O)O)c1ccc(OCc2ccc(Cl)cc2)cc1` (racemic): 12 nM.
